# Paper PMC8957926, “Identification of a Novel Chromate and Selenite Reductase FesR in Alishewanella sp. WH16-1” (Frontiers in Microbiology, 2022)
# Assays:
# FesR [1] = biological target: T1, FesR (Alishewanella sp. WH16-1, UniProt A0A0T5PLD3); assay: residual Cr(VI) by diphenylcarbazide colorimetry; type: biochemical; details: 1 mmol/L NADPH, pH 7.0, 50 °C, Tris-HCl, 10 min, no added FAD
# T1 construct: Full-length, no signal peptide predicted, GST-tagged (pGEX-6p-1), eluted with glutathione, expressed in E. coli BL21(DE3); predicted 127 kDa with tag; FAD domain 16-520, two 4Fe-4S clusters 525-625
# FesR [2] = biological target: T2, FesR (Alishewanella sp. WH16-1, UniProt A0A0T5PLD3, R385A); assay: enhancement of Cr(VI) and Se(IV) reduction by added FAD; type: biochemical; details: […] FAD, […] NADPH, […] K2CrO4 or Na2SeO3, optimum pH and temperature (pH […] °C)
# T2 construct: gene AAY72_06850; Full-length, no signal peptide predicted, GST-tagged (pGEX-6p-1), eluted with glutathione, expressed in E. coli BL21(DE3); predicted 127 kDa with tag; FAD domain 16-520, two 4Fe-4S clusters 525-625
# T2 sequence (A0A0T5PLD3 1-919 R385A): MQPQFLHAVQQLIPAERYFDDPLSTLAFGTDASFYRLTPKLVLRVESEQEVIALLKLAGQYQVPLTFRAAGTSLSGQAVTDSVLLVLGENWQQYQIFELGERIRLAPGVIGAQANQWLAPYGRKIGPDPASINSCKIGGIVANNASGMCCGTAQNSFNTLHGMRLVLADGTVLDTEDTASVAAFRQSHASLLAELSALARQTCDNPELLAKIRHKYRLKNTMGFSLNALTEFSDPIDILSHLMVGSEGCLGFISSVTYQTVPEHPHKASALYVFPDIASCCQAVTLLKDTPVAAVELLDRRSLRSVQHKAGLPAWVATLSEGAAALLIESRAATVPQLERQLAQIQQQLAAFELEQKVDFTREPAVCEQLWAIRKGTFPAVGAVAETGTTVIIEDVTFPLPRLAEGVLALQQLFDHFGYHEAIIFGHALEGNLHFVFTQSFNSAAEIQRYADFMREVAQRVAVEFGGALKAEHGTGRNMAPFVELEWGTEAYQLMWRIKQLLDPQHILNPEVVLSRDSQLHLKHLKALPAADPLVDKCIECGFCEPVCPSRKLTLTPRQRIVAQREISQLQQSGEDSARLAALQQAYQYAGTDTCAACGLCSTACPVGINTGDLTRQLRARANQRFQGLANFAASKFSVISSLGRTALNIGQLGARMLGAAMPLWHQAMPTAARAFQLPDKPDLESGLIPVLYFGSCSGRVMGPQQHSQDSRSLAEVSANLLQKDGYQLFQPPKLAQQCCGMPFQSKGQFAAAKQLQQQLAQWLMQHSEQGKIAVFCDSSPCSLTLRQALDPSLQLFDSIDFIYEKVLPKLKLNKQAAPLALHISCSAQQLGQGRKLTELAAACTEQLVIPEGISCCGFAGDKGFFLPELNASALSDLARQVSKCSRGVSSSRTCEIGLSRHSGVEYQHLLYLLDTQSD
# O=[Se](O)O = assay: purified protein; details: 1 mmol/L NADPH, pH 7.0, 50 °C, Tris-HCl, 10 min, no added FAD
compound,measurement,setting,value
[O]=[Cr](=[O])([OH])[OH] [Cr(VI)],Km,FesR [1],1680 ± 126 µM
Cc1cc2nc3c(=O)[nH]c(=O)nc-3n(C[C@H](O)[C@H](O)[C@H](O)COP(=O)(O)OP(=O)(O)OC[C@H]3O[C@@H](n4cnc5c(N)ncnc54)[C@H](O)[C@@H]3O)c2cc1C [FAD],enhancement of Cr(VI) and Se(IV) reduction by added FAD,FesR [2],FAD couldn’t enhance the enzyme activity of FesR when the predicted FAD-binding residue Arg385 was mutated
FesR (Alishewanella sp. WH16-1),Km,O=[Se](O)O,1164.0 ± 89.4 µM
